Tests used:
AMPA receptor = experiment: Electrophysiological whole cell patch clamp experiments: potentiation of AMPA-induced current; format: cell-based, mouse; conditions: for effect on the current induced by application of 30 μM AMPA: cultured mouse neocortical neurons, voltage clamp -60 mV, AMPA 30 μM for 1 second every 45 seconds, test concentrations per FIGS. 2-8 (Cpd 21 15 μM; 22, 24, 25 10 μM; 23a 10-100 μM; 26 3 μM; 27a 0.1-100 μM); for concentration dependence of the potentiating effect: Compound 23a at 10, 30 and 100 μM, Compound 27a at 0.1-100 μM, 30 μM AMPA
Method: Electrophysiological Patch Clamp Experiments
Experiments were performed in voltage clamp using conventional whole cell patch clamp methods (see Hamill O P, Marty A, Neher E, Sakmann B & Sigworth F J: Improved patch-clamp techniques for high-resolution current recording from cells and cell-free membrane patches; Pflügers Arch. 1981 39 85–100), essentially as described Mathiesen et al. (Mathiesen C, Varming T & Jensen L H: In vivo and in vitro evaluation of AMPA receptor antagonists in rat hippocampal neurones and cultured mouse cortical neurons; Eur. J. Pharmacol. 1998 353 159–167).
The following salt solutions were used (mM): NaCl (140), KCl (4), CaCl2 (2), MgCl2 (1), Sucrose (30; Available from Fluka Chemie, Buchs, Switzerland), Tetrodotoxin (0.0003; Available from Alomone Labs, Jerusalem, Israel), Bicuculline Methiodide (0.005; Available from RBI, MA, USA) and HEPES (10, pH 7.4).
Intracellular solution (mM): CsCl (120), CsF (20), MgCl2 (2), EGTA (10), ATP (4), HEPES (10, pH=7.2).
Cell cultures: Mouse neocortical neurons were cultured essentially as described by Drejer et al. (Drejer J, Honoré T & Schousboe A: Excitatory amino acid-induced release of ^3H-GABA from cultured mouse cerebral cortex interneurons; J. Neurosci. 1987 7 2910–2916).
Briefly, the forebrains from embryonic (E17) NMRI mice were removed under sterile conditions. Pregnant (9 days) NMRI mice were obtained from Bomholtgaard Breeding and Research Center, Ry, Denmark. The tissue was chopped in 0.4 mm cubes and the triturated with trypsin (12.5 μg/ml) and DNAse (2.5 μg/ml), 15 minutes, 37° C. The cells were suspended at a concentration of 1×10^6 cells/ml in a slightly modified DMEM containing horse serum (10% (v/v)), penicillin (333 U/ml), paraaminobenzoic acid (1 μg/ml), L-glutamine (0.5 mM), insulin (0.08 U/ml) and KCl (23.8 mM). Horse serum, N2 supplement and culture media were purchased from Life Technologies (GIBCO), Roskilde, Denmark.
The cell suspension was subsequently inoculated into poly-L-lysine coated 35 mm Petri dishes (2 ml/dish). Glass coverslips (3.5 mm) were placed in the dishes before coating. After 24 hours in culture, the medium was replaced by freshly made medium containing 1% N2 supplement instead of serum.
The cells were kept in culture for 7–14 days at 37° C. (5% CO2/95% O2) before experiments were carried out.
Electronics, programs and data acquisition: The amplifier used was the EPC-9 (HEKA-electronics, Lambrect, Germany) run by a Power Macintosh G3 computer via an ITC-16 interface. Experimental conditions were set with the Pulse-software accompanying the amplifier. Data were low pass filtered and sampled directly to hard-disk at a rate of 3 times the cut-off frequency.
Pipettes and electrodes: Pipettes were pulled from borosilicate glass (Modulohm, Copenhagen, Denmark) using a horizontal electrode puller (Zeitz-Instrumente, Augsburg, Germany). The pipette resistances were 1.7–2.4 MΩ in the salt solutions used in these experiments. The pipette electrode was a chloridized silver wire, and the reference was a silverchloride pellet electrode (In Vivo Metric, Healdsburg, USA) fixed to the experimental chamber. The electrodes were zeroed with the open pipette in the bath just prior to sealing.
Experimental procedure: Coverslips were transferred to a 15 μl experimental chamber mounted on the stage of an inverted microscope (IMT-2, Olympus) supplied with Nomarski optics. The neurons were continuously superfused with extracellular saline at a rate of 2.5 ml/min. After giga-seal formation (1–5 GΩ, success-rate≈90%) the whole cell configuration was attained by suction.
The cells were held at a holding voltage of −60 mV, and at the start of each experiment the current was continuously measured for at least 30 seconds to ensure a stable leak current.
AMPA-containing solutions were delivered to the chamber through a custom-made gravity-driven flowpipe, the tip of which was placed approximately 50 μm from the cell. […]

Row | Structure (SMILES) | effect on the current induced by application of 30 μM AMPA (AMPA receptor) | melting point | concentration dependence of the potentiating effect (AMPA receptor)
1 | O=S1(=O)NC(C2CCCCC2)Cc2ccc(S(=O)(=O)N3CCCCC3)cc21 (racemic) [Compound 21, (3RS)-3-Cyclohexyl-7-(piperidine-1-sulfonyl)-3,4-dihydro-2H-benzo[e][1,2]thiazine-1,1-dioxide] | potentiate the current induced by application of 30 μM AMPA |  | 
2 | Cc1cc2c(cc1S(=O)(=O)N1CCCCC1)S(=O)(=O)NC(C1CCCC1)C2 (racemic) [Compound 25, (3RS)-3-Cyclopentyl-6-methyl-7-(piperidine-1-sulfonyl)-3,4-dihydro-2H-benzo[e][1,2]thiazine-1,1-dioxide] | potentiate the current induced by application of 30 μM AMPA |  | 
3 | O=S1(=O)NC(C2CCCC2)Cc2ccc(S(=O)(=O)N3CCCCC3)cc21 (racemic) [Compound 22, (3RS)-3-Cyclopentyl-7-(piperidine-1-sulfonyl)-3,4-dihydro-2H-benzo[e][1,2]thiazine-1,1-dioxide] | potentiate the current induced by application of 30 μM AMPA |  | 
4 | CN1CCN(S(=O)(=O)c2ccc3c(c2)S(=O)(=O)NC(C2CCCC2)C3)CC1.Cl (racemic) |  | 234 to 236 °C | 
5 | CN1CCN(S(=O)(=O)c2ccc3c(c2)S(=O)(=O)NC(C2CCCCC2)C3)CC1 (racemic) [Compound 24, (3RS)-3-Cyclohexyl-7-(4-methyl-piperazine-1-sulfonyl)-3,4-dihydro-2H-benzo[e][1,2]thiazine-1,1-dioxide] | potentiate the current induced by application of 30 μM AMPA |  | 
6 | CN1CCN(S(=O)(=O)c2ccc3c(c2)S(=O)(=O)NC(C2CCCC2)C3)CC1 (racemic) [Compound 23a, (3RS)-3-Cyclopentyl-7-(4-methyl-piperazine-1-sulfonyl)-3,4-dihydro-2H-benzo[e][1,2]thiazine-1,1-dioxide] | potentiate the current induced by application of 30 μM AMPA |  | concentration-dependent
7 | Cc1cc2c(cc1S(=O)(=O)N1CCOCC1)S(=O)(=O)NC(C1CCCC1)C2 (racemic) [Compound 26, (3RS)-3-Cyclopentyl-6-methyl-7-(morpholine-4-sulfonyl)-3,4-dihydro-2H-benzo[e][1,2]thiazine-1,1-dioxide] | potentiate the current induced by application of 30 μM AMPA |  | 
8 | Cc1cc2c(cc1S(=O)(=O)N1CCN(C)CC1)S(=O)(=O)NC(C1CCCC1)C2 (racemic) [Compound 27a, (3RS)-3-Cyclopentyl-6-methyl-7-(4-methyl-piperazine-1-sulfonyl)-3,4-dihydro-2H-benzo[e][1,2]thiazine-1,1-dioxide] | potentiate the current induced by application of 30 μM AMPA |  | concentration-dependent
9 | Cc1cc2c(cc1S(=O)(=O)N1CCN(C)CC1)S(=O)(=O)NC(C1CCCC1)C2.Cl (racemic) |  | 251 °C (dec.) | 

From patent US7199118B2, “Benzothiazine derivatives, their preparation and use” (NeuroSearch A/S, priority 2001, dated 2007)
